Where “and” joins values, the source holds several entries; their conditions need not be identical. Equal values may be shown once.
Assays:
mice = assay: Elevated plus maze, source data sheets EPM (mouse line not given); assay type: in vivo
Protocol: The elevated plus maze was performed using a standard set up, with two enclosed arms and two open arms. Mice were placed at the intersection of the open and closed arms and allowed to freely explore for 5 min, two times. Time spent in the open and closed arms and number of entries into the open and closed arms were recorded.

p-ABL1 = target: T1, p-ABL1 (Homo sapiens, UniProt P00519); assay: KINOMEscan competition binding, p-ABL1; conditions: 10 µM compound
T1 construct: DNA label for qPCR read-out (T7 phage fusion or DNA tag); purchased Eurofins DiscoverX Corporation; host or cells: T7 phage in E. coli (BL21-derived) or HEK-293
Protocol: (§1) The KINOMEscan screening platform (Eurofins DiscoverX Corporation) was performed using active site-directed competition binding assay to quantitatively measure interactions between BK40143 and BK40197 and more than 450 human kinases and disease relevant mutant variants. […] Screening “hits” are identified by measuring the amount of kinase captured in test (BK40143 and BK40197) versus control samples by using a quantitative and ultra-sensitive qRT-PCR method that detects the associated DNA label. BK40143 and BK40197 were screened at 10 µM concentration, and results for primary screen binding interactions were reported as “% Ctrl” (POC), where lower numbers indicate stronger hits and calculated as follows: [test compound signal−positive control signal/negative control signal−positive control signal]×100
(§2) negative control = DMSO (100% Ctrl)
(§3) positive control = control compound (0% Ctrl)
(§4) Based on screening data from of profiled compounds, a proportional relationship between primary screening results and corresponding compound/target affinities can be described as binding constants (Kd values) for the indicated ranges of POC values with tighter binding (higher affinity) interactions associated with lower POC values and weaker binding (lower affinity) associated with higher POC values. Briefly, kinase-tagged T7 phage strains were grown in parallel in 24-well blocks in an E. coli host derived from the BL21 strain. E. coli were grown to log-phase and infected with T7 phage from a frozen stock (multiplicity of infection = 0.4) and incubated with shaking at 32°C until lysis (90–150 min). The lysates were centrifuged (6,000g) and filtered (0.2 μm) to remove cell debris. The remaining kinases were produced in HEK-293 cells and subsequently tagged with DNA for qRT-PCR detection. Streptavidin-coated magnetic beads were treated with biotinylated small molecule ligands for 30 min at RT to generate affinity resins for kinase assays. The liganded beads were blocked with excess biotin and washed with blocking buffer (1% BSA, 0.05% Tween 20, 1 mM DTT; SeaBlock [Pierce]) to remove unbound ligand and to reduce non-specific phage binding. Binding reactions were assembled by combining kinases, liganded affinity beads, and test compounds in 1x binding buffer (20% 0.17x PBS, 0.05% Tween 20, 6 mM DTT; SeaBlock). Test compounds were prepared as 100x stocks in 100% DMSO and directly diluted into the assay. All reactions were performed in polypropylene 384-well plates in a final volume of 0.02 ml. The assay plates were incubated at RT with shaking for 1 h and the affinity beads were washed with wash buffer (1x PBS, 0.05% Tween 20). […] The kinase concentration in the eluates was measured by qRT-PCR.

CIT = target: T2, CIT (Homo sapiens, UniProt O14578); assay: KINOMEscan competition binding, CIT; conditions: 10 µM compound
T2 construct: DNA label for qPCR read-out (T7 phage fusion or DNA tag); purchased Eurofins DiscoverX Corporation; host or cells: T7 phage in E. coli (BL21-derived) or HEK-293
Protocol: as §1, §2, §3, §4

FYN = target: T3, FYN (Homo sapiens, UniProt P06241); assay: KINOMEscan competition binding, FYN; conditions: 10 µM compound
T3 construct: DNA label for qPCR read-out (T7 phage fusion or DNA tag); purchased Eurofins DiscoverX Corporation; host or cells: T7 phage in E. coli (BL21-derived) or HEK-293
Protocol: as §1, §2, §3, §4

KIT (V559D) = target: T4, KIT (V559D) (Homo sapiens, UniProt P10721, V559D); assay: KINOMEscan competition binding, KIT (V559D); conditions: 10 µM compound
T4 construct: DNA label for qPCR read-out (T7 phage fusion or DNA tag); purchased Eurofins DiscoverX Corporation; host or cells: T7 phage in E. coli (BL21-derived) or HEK-293
Protocol: as §1, §2, §3, §4

[1] = tested on: amyloid-beta in TgAPP mice; assay: Immunohistochemistry for amyloid-beta (6E10), hippocampus; assay type: in vivo, mouse; conditions: BK40143 5 mg/kg, BK40197 45 mg/kg, vs DMSO
Protocol: Staining for amyloid-beta and microglia was performed on left brain hemispheres collected from treated and untreated mice. Brains were cryoprotected with 30% sucrose and sectioned at 30 μm on a cryostat. Sections were then treated with an anti-amyloid beta (6E10, cat. #803001; BioLegend) or anti-IBA1 (cat. # 018-28523; Wako Chemicals) primary followed by either an AlexaFluor secondary (Thermo Fisher Scientific) and DAPI mounting medium (Vector Labs) or a biotinylated secondary and 3, 3′ diaminobenzidine chromogen substrate. Slides were imaged on either a Leica DMi8 light microscope or a Zeiss LSM 800 confocal microscope.

[2] = Totals (Trial 1 + Trial 2), individual animals, listed as 197
[3] = Trial 1, individual animals, listed as 197
[4] = Trial 2, individual animals, listed as 197
[5] = elevated plus maze, trial 1 + trial 2, one value per mouse, listed as 197
[6] = elevated plus maze, trial 1, one value per mouse, listed as 197
[7] = elevated plus maze, trial 2, one value per mouse, listed as 197

T4 sequence (P10721 26-976 V559D): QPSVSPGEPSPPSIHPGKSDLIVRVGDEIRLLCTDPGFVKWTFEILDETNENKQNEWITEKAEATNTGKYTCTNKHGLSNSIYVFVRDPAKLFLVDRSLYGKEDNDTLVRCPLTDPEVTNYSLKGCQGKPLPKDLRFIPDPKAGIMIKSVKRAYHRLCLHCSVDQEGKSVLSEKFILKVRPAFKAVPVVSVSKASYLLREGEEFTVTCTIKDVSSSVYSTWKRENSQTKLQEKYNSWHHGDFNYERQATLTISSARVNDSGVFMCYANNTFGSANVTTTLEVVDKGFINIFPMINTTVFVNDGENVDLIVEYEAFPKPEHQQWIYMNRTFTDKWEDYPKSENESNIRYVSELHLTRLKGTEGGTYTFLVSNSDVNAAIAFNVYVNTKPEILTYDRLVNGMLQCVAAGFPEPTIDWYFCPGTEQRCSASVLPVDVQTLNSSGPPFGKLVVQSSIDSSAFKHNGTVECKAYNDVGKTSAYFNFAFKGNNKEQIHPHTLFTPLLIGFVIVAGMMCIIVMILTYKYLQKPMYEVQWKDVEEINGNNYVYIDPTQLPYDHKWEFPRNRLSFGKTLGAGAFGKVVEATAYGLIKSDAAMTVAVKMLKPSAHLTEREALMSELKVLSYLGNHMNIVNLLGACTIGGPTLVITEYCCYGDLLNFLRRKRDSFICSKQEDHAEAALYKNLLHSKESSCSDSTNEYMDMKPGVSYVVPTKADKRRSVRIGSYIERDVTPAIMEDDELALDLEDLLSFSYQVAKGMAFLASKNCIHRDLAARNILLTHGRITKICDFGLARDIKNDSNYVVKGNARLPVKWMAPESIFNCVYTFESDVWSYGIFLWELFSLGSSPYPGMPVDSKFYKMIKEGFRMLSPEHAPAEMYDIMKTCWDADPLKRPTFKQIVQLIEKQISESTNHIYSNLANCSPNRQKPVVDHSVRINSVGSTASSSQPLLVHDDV
T3 sequence (P06241 whole entry, the tested form may be a part): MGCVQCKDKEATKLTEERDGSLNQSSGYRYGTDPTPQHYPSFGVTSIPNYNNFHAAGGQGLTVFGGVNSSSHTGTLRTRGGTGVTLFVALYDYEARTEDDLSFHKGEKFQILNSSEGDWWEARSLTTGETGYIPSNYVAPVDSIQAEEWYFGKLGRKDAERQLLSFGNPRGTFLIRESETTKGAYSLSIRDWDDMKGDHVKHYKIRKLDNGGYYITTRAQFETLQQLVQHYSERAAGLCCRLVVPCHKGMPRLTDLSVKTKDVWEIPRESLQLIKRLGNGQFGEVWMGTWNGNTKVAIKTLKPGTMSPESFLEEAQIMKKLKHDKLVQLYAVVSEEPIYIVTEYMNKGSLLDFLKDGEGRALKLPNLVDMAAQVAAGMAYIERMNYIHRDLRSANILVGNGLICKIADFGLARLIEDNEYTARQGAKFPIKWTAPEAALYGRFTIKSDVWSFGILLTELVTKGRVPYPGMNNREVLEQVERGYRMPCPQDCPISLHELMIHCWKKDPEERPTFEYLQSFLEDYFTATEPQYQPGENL
T1 sequence (P00519 whole entry, the tested form may be a part): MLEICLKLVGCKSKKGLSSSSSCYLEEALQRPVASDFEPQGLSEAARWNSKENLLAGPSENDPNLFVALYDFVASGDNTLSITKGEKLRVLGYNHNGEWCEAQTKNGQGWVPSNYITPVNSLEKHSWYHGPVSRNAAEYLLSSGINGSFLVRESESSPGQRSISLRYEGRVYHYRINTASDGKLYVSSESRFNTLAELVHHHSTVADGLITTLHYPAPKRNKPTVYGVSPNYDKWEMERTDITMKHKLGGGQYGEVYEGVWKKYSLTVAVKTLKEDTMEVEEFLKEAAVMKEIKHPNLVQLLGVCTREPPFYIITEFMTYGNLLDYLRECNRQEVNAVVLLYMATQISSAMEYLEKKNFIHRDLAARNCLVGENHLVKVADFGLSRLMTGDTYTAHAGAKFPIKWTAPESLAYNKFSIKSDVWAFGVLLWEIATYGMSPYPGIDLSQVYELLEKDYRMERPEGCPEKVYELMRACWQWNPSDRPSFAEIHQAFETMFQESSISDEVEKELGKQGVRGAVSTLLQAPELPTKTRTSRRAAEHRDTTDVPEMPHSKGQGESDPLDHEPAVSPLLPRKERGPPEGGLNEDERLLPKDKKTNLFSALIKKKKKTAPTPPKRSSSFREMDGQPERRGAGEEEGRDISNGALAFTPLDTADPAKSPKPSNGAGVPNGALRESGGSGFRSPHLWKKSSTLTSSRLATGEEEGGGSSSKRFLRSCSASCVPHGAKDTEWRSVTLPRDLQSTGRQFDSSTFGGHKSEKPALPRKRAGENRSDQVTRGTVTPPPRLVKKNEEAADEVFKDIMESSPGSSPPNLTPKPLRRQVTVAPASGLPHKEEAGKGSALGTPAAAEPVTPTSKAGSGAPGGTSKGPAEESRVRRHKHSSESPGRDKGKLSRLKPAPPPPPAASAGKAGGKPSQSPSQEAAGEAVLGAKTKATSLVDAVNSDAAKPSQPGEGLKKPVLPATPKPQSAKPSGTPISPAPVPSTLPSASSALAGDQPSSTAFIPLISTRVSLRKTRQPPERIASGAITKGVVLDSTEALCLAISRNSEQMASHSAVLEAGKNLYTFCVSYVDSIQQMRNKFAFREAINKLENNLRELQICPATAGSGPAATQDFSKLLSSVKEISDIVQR
T2 sequence (O14578 whole entry, the tested form may be a part): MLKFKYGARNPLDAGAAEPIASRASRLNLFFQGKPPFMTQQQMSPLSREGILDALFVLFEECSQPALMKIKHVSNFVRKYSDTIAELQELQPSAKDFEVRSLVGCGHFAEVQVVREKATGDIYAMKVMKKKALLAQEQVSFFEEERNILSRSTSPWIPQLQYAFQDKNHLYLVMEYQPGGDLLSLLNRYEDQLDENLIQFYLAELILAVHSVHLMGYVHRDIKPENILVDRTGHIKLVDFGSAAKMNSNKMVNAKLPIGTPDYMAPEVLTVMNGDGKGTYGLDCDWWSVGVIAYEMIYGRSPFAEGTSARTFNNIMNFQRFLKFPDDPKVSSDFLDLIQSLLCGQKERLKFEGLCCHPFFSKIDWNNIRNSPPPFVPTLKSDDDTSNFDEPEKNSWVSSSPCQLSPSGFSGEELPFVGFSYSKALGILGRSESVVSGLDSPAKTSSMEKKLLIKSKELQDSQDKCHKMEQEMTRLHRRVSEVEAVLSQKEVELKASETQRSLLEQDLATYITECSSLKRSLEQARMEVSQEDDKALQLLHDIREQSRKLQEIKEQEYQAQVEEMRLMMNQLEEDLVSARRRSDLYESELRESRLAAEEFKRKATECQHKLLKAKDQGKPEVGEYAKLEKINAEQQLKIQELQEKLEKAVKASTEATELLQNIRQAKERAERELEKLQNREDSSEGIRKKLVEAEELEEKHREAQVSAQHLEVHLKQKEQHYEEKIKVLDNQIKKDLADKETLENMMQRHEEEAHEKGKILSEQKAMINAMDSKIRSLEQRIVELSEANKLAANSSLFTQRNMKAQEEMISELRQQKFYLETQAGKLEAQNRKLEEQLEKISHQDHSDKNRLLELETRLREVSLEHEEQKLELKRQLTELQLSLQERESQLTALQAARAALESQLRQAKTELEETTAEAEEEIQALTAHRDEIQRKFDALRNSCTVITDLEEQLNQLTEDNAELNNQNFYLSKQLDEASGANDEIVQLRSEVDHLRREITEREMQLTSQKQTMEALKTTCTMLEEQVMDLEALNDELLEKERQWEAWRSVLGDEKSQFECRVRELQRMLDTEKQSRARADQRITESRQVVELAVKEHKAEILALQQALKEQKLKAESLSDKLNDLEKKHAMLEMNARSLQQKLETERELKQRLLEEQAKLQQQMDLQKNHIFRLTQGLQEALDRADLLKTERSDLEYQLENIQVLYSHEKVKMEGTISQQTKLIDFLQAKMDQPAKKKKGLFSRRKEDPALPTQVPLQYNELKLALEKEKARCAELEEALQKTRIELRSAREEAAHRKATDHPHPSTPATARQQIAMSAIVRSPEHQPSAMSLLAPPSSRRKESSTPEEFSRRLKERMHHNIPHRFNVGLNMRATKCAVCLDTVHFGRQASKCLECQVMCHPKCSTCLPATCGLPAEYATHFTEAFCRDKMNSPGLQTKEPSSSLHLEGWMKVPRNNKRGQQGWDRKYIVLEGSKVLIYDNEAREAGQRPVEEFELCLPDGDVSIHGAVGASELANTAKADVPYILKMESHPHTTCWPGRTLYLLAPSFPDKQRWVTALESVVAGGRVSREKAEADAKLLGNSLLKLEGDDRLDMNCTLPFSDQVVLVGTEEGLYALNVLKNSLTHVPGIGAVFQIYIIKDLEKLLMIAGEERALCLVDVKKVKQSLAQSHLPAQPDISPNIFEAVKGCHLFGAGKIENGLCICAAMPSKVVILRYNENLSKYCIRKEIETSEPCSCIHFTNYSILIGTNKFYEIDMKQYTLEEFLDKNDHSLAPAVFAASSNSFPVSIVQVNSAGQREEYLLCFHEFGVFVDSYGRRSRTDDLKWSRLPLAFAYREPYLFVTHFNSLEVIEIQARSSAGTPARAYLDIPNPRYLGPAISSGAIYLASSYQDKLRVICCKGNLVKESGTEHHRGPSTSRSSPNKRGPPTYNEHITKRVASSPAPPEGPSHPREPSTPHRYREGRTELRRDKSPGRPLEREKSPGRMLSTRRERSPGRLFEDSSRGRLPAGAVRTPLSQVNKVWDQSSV

Q: With `Cc1cccc(-c2cc3nccc(N4CCOCC4)c3s2)c1` [BK40197] as the compound, how does the “Closed Entries” value (mice; [2]) read?
A: 13 and 8 and 4 and 2 and 14 and 3 and 9

Q: And the “Open Entries” value (mice; [2])?
A: 8 and 9 and 7 and 13 and 15 and 5 and 10

Q: And the “Time Closed” value (mice; Totals (Trial 1 + Trial 2), individual animals, listed as 197, in s)?
A: 299 and 472 and 180 and 74 and 440 and 274 and 198 and 409

Q: And the “Time Open” value (mice; Totals (Trial 1 + Trial 2), individual animals, listed as 197, in s (unit assumed))?
A: 301 and 128 and 420 and 526 and 160 and 326 and 402 and 191

Q: What about the “Closed Entries AVG” value (mice; Totals, group average) of the same compound?
A: 8.25

Q: What about the “Open Entries AVG” value (mice; Totals, group average) of the same compound?
A: 9.5

Q: And the “Time Closed AVG” value (mice; Totals, group average, in s)?
A: 293.25

Q: What about the “Time Open AVG” value (mice; Totals, group average, in s) of the same compound?
A: 306.75

Q: What about the “Closed Entries AVG” value (mice; Trial 1, group average) of the same compound?
A: 3.75

Q: What about the “Open Entries AVG” value (mice; Trial 1, group average) of the same compound?
A: 6.5

Q: What about the “Time Closed AVG” value (mice; Trial 1, group average, in s) of the same compound?
A: 86.375

Q: What about the “Time Open AVG” value (mice; Trial 1, group average, in s) of the same compound?
A: 213.625

Q: What about the “Closed Entries” value (mice; [3]) of the same compound?
A: 3 and 4 and 1 and 8 and 0 and 7

Q: What about the “Open Entries” value (mice; [3]) of the same compound?
A: 5 and 6 and 8 and 4 and 11 and 1 and 9

Q: And the “Time Closed” value (mice; Trial 1, individual animals, listed as 197, in s)?
A: 60 and 208 and 48 and 55 and 163 and 41 and 0 and 116

Q: What about the “Time Open” value (mice; Trial 1, individual animals, listed as 197, in s (unit assumed)) of the same compound?
A: 240 and 92 and 252 and 245 and 137 and 259 and 300 and 184

Q: What about the “Closed Entries AVG” value (mice; Trial 2, group average) of the same compound?
A: 4.5

Q: What about the “Open Entries AVG” value (mice; Trial 2, group average) of the same compound?
A: 3

Q: And the “Time Closed AVG” value (mice; Trial 2, group average, in s)?
A: 206.875

Q: And the “Time Open AVG” value (mice; Trial 2, group average, in s)?
A: 93.125

Q: And the “Closed Entries” value (mice; [4])?
A: 10 and 4 and 1 and 5 and 3 and 2

Q: And the “Open Entries” value (mice; [4])?
A: 3 and 1 and 2 and 7 and 4

Q: And the “Time Closed” value (mice; Trial 2, individual animals, listed as 197, in s)?
A: 239 and 264 and 132 and 19 and 277 and 233 and 198 and 293

Q: What about the “Time Open” value (mice; Trial 2, individual animals, listed as 197, in s (unit assumed)) of the same compound?
A: 61 and 36 and 168 and 281 and 23 and 67 and 102 and 7

Q: What about the “Time/Entry AVG” value (mice; elevated plus maze, group average) of the same compound?
A: 8.7983

Q: And the “Open Entries AVG” value (mice; elevated plus maze, group average of totals)?
A: 14.5714

Q: What about the “Time Open AVG” value (mice; elevated plus maze, group average of totals, in s) of the same compound?
A: 96.8

Q: And the Time/Entry (mice; elevated plus maze, total time open / total open entries, one value per mouse, listed as 197)?
A: 3.925 and 5.671 and 12.2 and 2.561 and 11.6778 and 13.5375 and 12.015

Q: And the “Open Entries” value (mice; elevated plus maze, totals listed by treatment group, one value per mouse, listed as 197)?
A: 12 and 7 and 2 and 44 and 9 and 8 and 20

Q: And the “Totals Closed Entries” value (mice; [5])?
A: 22 and 15 and 11 and 38 and 10 and 3 and 12

Q: What about the “Totals Open Entries” value (mice; [5]) of the same compound?
A: 9 and 8 and 20 and 12 and 7 and 2 and 44

Q: What about the “Totals Time Open” value (mice; elevated plus maze, trial 1 + trial 2, one value per mouse, listed as 197, in s) of the same compound?
A: 105.1 and 108.3 and 240.3 and 47.1 and 39.7 and 24.4 and 112.7

Q: And the “Totals Time Closed” value (mice; elevated plus maze, trial 1 + trial 2, one value per mouse, listed as 197, in s (unit assumed))?
A: 346 and 410.7 and 291.7 and 404.6 and 493.6 and 547.6 and 346.3

Q: What about the “Trial 1 Closed Entries” value (mice; [6]) of the same compound?
A: 17 and 7 and 6 and 31 and 5 and 2 and 8

Q: What about the “Trial 1 Open Entries” value (mice; [6]) of the same compound?
A: 6 and 8 and 12 and 10 and 1 and 15

Q: What about the “Trial 1 Time Closed” value (mice; elevated plus maze, trial 1, one value per mouse, listed as 197, in s (unit assumed)) of the same compound?
A: 123.7 and 123.9 and 82.1 and 166.6 and 229.4 and 269.8 and 138

Q: What about the “Trial 2 Closed Entries” value (mice; [7]) of the same compound?
A: 5 and 8 and 7 and 1 and 4

Q: And the “Trial 2 Open Entries” value (mice; [7])?
A: 3 and 0 and 8 and 2 and 1 and 29

Q: What about the “Trial 2 Time Open” value (mice; elevated plus maze, trial 2, one value per mouse, listed as 197, in s) of the same compound?
A: 39.9 and 0 and 56.7 and 15.1 and 0.5 and 14.1 and 49

Q: And the “Trial 2 Time Closed” value (mice; elevated plus maze, trial 2, one value per mouse, listed as 197, in s (unit assumed))?
A: 222.3 and 286.8 and 209.6 and 238 and 264.2 and 277.8 and 208.3

Q: What about the “Time/Entry AVG” value (mice; group average) of the same compound?
A: 38.3997

Q: What about the inhibition at 10 µM (p-ABL1) of the same compound?
A: 63%

Q: And the remaining binding at 10 µM (p-ABL1; lower = stronger binding, read-out: p-ABL1 %Ctrl @ 10000nM (POC))?
A: 37%

Q: And the inhibition at 10 µM (CIT)?
A: 19%

Q: What about the remaining binding at 10 µM (CIT; lower = stronger binding, read-out: CIT %Ctrl @ 10000nM (POC)) of the same compound?
A: 81%

Q: And the inhibition at 10 µM (FYN)?
A: 44%

Q: What about the remaining binding at 10 µM (FYN; lower = stronger binding, read-out: FYN %Ctrl @ 10000nM) of the same compound?
A: 56%

Q: And the inhibition at 10 µM (KIT (V559D))?
A: 99.7%

Q: What about the remaining binding at 10 µM (KIT (V559D); lower = stronger binding, read-out: KIT (V559D) %Ctrl @ 10000nM (POC)) of the same compound?
A: 0.35%

Q: What about the “amyloid concentrations in dentate gyrus (6E10 staining)” value [1] of the same compound?
A: robustly decreased amyloid concentrations in the dentate gyrus of the hippocampus
